The target in the assay is human ATX (Homo sapiens (Human), UniProt Q13822). The assay is described as follows: Human ATX enzyme inhibition assay (fluorescence quenching, MR121 substrate). In kind it is biochemical. The settings on record: human His-tagged ATX 30 nM, MR121 substrate 1 μM, 30° C. Put shortly:
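Human His-tagged ATX (30 nM final) preincubated 15 min at 30 °C with serially diluted compounds in Tris buffer pH 8.0 with Ca2+, Mg2+ and 0.01% Triton X-100. MR121/tryptophan-labelled substrate analogue (1 μM final) then added for 15 min at 30 °C; cleavage read by fluorescence dequenching.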

The molecule `Cc1cc(OCc2cc(C(=O)N3CCCC3)[nH]n2)c(C(C)(C)C)cc1Cl` [Example F4, (3-((2-(tert-Butyl)-4-chloro-5-methylphenoxy)methyl)-1H-pyrazol-5-yl)(pyrrolidin-1-yl)methanone] had an IC50 of 8 nM.

`Cc1cc(OCc2cc(C(=O)N(C)C)[nH]n2)c(C(C)(C)C)cc1Cl` [Example F5, 3-((2-(tert-Butyl)-4-chloro-5-methylphenoxy)methyl)-N,N-dimethyl-1H-pyrazole-5-carboxamide] came in with an IC50 of 15 nM.

(Values after US11352330B2, “Phenoxymethyl derivatives” (Hoffmann-La Roche Inc., priority 2015, dated 2022).)
